Results reported in patent publication US10213415B2, “Compounds as opioid receptor modulators” (JANSSEN PHARMACEUTICA NV, priority 2004, dated 2019).
Values joined by “and” are separate entries in the source; they are usually repeats but may differ in a detail not shown here. Equal values may be shown once. Read-outs that look alike come from different tables or passages of the source.

Legend:
delta opioid receptor = biological target: T1, delta opioid receptor (Rattus norvegicus, UniProt P33533); assay: Rat Brain Delta Opioid Receptor Binding Assay ([3H]DPDPE); conditions: rat forebrain membranes, margin of error 10-20%
T1 construct: from tissue; host or cells: forebrain of male Wistar rats
Summary of the method: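 Rat (male Wistar) forebrain membranes in 50 mM Tris-HCl pH 7.4 with 5 mM MgCl2, incubated with ~4 nM [3H]DPDPE for 2.5 h at 25 °C. Bound ligand collected by filtration and scintillation counting. Single-concentration data given as % inhibition of specific binding; concentration series fitted to Ki.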

[1] = biological target: T2, delta opioid receptor (NG108-15 cell membranes) (Mus musculus, UniProt P32300); assay: Delta Opioid Receptor Functional Assay: [35S]GTPγS Binding in NG108-15 Cell Membranes, Version 2; assay type: biochemical; conditions: for DOR GTP-binding Assay v2 (% I): % inhibition of agonist-stimulated GTPγS binding
T2 construct: NG108-15 cell membranes were purchased from Applied Cell Sciences (Rockville, Md.); host or cells: NG108-15 cells (membranes purchased)
Summary of the method: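 SPA-coupled NG108-15 membranes (37.5 μg/ml) were incubated with 0.1 nM [35S]GTPγS and 100 μM GDP in Tris pH 7.6, 5 mM MgCl2, 100 mM NaCl, with increasing agonist concentrations; 10 μM unlabeled GTPγS defined nonspecific binding. EC50 from % of basal; inhibition as % of 1 μM SNC80 stimulation.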

[2] = system: novel environment-stressed mice; assay: In Vivo Assay-Stress-Induced Fecal Output (Fecal Output for 1 hr); set-up: species or system mouse; conditions: for Fecal Output (# pellets) cpd: novel environment-stressed mice; for Fecal Output (# pellets) cpd / response vs control in vivo at 30 mg/kg / response vs control in vivo at 10 mg/kg: 1 hr; for response vs control in vivo at 30 mg/kg / response vs control in vivo at 10 mg/kg: Mus musculus, po, 1 h
Summary of the method: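 Adult male Crl:CD-1(ICR) mice (˜30-35 g; at least 10 per dose group) were split into acclimated non-stressed controls, held individually for 16-18 hr in wire-mesh-bottom cages, and non-acclimated stressed groups. Mice were dosed intragastrically with vehicle or test compound in 0.5% methylcellulose, housed individually in novel cages over absorbent cardboard, and fecal pellets per mouse were counted hourly.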

[3] = biological target: T3, delta opioid receptor (CHO-hδ cell membranes) (Homo sapiens, UniProt P41143); assay: Delta Opioid Receptor Functional Assay: [35S]GTPγS Binding in CHO-hδ Cell Membranes, Version 1; assay type: biochemical; conditions: read-out: DOR GTP-binding Assay_v1 EC50
T3 construct: purchased Receptor Biology, Inc. (Baltimore, Md.); host or cells: CHO cells (recombinant expression)
Method: CHO-hδ cell membranes were purchased from Receptor Biology, Inc. (Baltimore, Md.). 10 mg/ml of membrane protein suspended in 10 mM TRIS-HC pH 7.2, 2 mM EDTA, 10% sucrose.
Membranes were maintained at 4-8° C. A portion (1 ml) of membranes was added into 15 mL cold binding assay buffer. The assay buffer contained 50 mM HEPES, pH 7.6, 5 mM MgCl2, 100 mM NaCl, 1 mM DTT and 1 mM EDTA. The membrane suspension was homogenized with a Polytron for 2 times and centrifuged at 3000 rpm for 10 min. The supernent was then centrifuged at 18,000 rpm for 20 min. The pellet was saved in a tube and 10 ml assay buffer was added into the tube. The pellet and buffer were mixed with a Polytron.
The pellet membranes (20 μg/ml) were preincubated with SPA (10 mg/ml) at 25° C. for 45 min in the assay buffer. The SPA (5 mg/ml) coupled with membranes (10 μg/ml) was then incubated with 0.5 nM [^35S]GTPγS in the same HEPES buffer containing 50 μM GDP in total volume of 200 μl. Increasing concentrations of receptor agonists were used to stimulate [^35S]GTPγS binding. The basal binding was tested in the absent agonists and no specific binding was tested in the present 10 μM unlabeled GTPγS. The data were analyzed on a Top counter.
Data The % of Basal=(stimulate−non specific)*100/(basal−non specific). EC50 values were calculated using a Prism program.

[4] = NG108-15 cell membranes, [35S]GTPγS, version 2, read-out: DOR GTP-binding Assay_v2_ EC50
[5] = NG108-15 cell membranes, version 2
[6] = 30 mg/kg oral, relative to acclimated control, read-out: Fecal Output cpd % control
[7] = 30 mg/kg oral, relative to novel environment stress (NES) vehicle group, read-out: Fecal Output cpd % NES
[8] = 10 mg/kg oral, relative to acclimated control, read-out: Fecal Output cpd % control
[9] = 10 mg/kg oral, relative to novel environment stress (NES) vehicle group, read-out: Fecal Output cpd % NES

T1 sequence (P33533 whole entry): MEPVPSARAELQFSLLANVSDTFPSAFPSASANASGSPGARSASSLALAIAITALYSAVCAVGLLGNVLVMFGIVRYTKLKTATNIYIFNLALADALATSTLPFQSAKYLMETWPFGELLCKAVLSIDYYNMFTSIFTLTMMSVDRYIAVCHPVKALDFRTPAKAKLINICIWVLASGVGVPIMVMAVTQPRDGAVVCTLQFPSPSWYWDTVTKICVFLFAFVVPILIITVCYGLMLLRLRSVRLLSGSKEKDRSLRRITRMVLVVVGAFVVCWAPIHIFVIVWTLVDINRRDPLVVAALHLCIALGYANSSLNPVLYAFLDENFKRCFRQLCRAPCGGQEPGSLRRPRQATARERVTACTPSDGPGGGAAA
T3 sequence (P41143 whole entry): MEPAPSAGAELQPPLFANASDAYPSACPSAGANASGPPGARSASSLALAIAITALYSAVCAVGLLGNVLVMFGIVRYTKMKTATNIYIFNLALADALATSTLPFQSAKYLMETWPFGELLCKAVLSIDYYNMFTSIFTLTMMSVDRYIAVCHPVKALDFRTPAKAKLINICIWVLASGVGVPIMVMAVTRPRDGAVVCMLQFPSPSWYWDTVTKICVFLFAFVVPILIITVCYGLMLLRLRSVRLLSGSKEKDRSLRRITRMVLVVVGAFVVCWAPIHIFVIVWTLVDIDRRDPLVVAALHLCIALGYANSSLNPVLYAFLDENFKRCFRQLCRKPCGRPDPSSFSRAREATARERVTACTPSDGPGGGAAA
T2 sequence (P32300 whole entry): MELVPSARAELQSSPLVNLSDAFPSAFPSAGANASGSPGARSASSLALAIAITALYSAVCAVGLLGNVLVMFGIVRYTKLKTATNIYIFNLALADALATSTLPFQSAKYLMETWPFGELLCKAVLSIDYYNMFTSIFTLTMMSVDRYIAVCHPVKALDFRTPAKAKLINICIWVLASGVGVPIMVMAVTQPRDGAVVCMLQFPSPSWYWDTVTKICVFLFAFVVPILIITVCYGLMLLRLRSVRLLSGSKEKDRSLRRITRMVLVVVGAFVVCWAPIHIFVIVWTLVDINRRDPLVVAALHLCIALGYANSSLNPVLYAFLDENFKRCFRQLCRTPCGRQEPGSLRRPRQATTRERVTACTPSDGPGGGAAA

Structure (SMILES)	Ki (delta opioid receptor; read-out: r Ki δ)	EC50 [1, 4] [nM]	DOR GTP-binding Assay v2 (% I) [1, 5] [%]	EC50 [3]	also measured
Cc1cc(C(N)=O)cc(C)c1C[C@H](N)C(=O)N(Cc1cccc(C(=O)O)c1)[C@@H](C)c1nc(-c2ccccc2)c[nH]1 [Cpd 227]	0.08 nM and 0.46 nM	> 10000	66.56		
COC(=O)c1cc(CN(C(=O)[C@@H](N)Cc2c(C)cc(C(N)=O)cc2C)[C@@H](C)c2nc(-c3ccccc3)c[nH]2)ccc1OC [Cpd 17]	60 nM	1.3	68.64		
CC(C)N(C(=O)[C@@H](N)Cc1ccc(O)cc1)[C@@H](C)c1nc(-c2ccccc2)c[nH]1 [Cpd 225]	112 nM			2190 nM	Fecal Output (# pellets) cpd ([2]; 30 mg/kg oral): 7.3 pellets; response vs control in vivo at 30 mg/kg [2, 6]: 235%; response vs control in vivo at 30 mg/kg [2, 7]: 152%
Cc1cc(O)cc(C)c1C[C@H](N)C(=O)N(Cc1nc(-c2ccccc2)c[nH]1)CC1CC1 [Cpd 192]	7.64 nM			76 nM	Fecal Output (# pellets) cpd ([2]; 10 mg/kg oral): 10.5 pellets; response vs control in vivo at 10 mg/kg [2, 8]: 194%; response vs control in vivo at 10 mg/kg [2, 9]: 84%
Cc1cc(O)cc(C)c1C[C@H](N)C(=O)N(Cc1nc(-c2ccc(F)cc2)c(C)[nH]1)C(C)C [Cpd 163]	4.51 nM			21 nM	
CCN(C(=O)[C@@H](N)Cc1ccc(O)cc1)[C@@H](C)c1nc(-c2ccccc2)c[nH]1 [Cpd 215]	126 nM			1060 nM	
Cc1cc(O)cc(C)c1C[C@H](N)C(=O)N(Cc1ccccc1)[C@@H](C)c1nc(-c2ccccc2)c[nH]1 [Cpd 218]	1.45 nM			20 nM	Fecal Output (# pellets) cpd ([2]; 30 mg/kg oral): 3.7 pellets; response vs control in vivo at 30 mg/kg [2, 6]: 138%; response vs control in vivo at 30 mg/kg [2, 7]: 35.4%
Cc1ccccc1-c1nc(CN(C(=O)[C@@H](N)Cc2c(C)cc(O)cc2C)C(C)C)[nH]c1C [Cpd 165]	23.6 nM			231 nM	
CC(C)N(Cc1nc(-c2ccccc2)c[nH]1)C(=O)[C@@H](N)Cc1ccc(O)cc1 [Cpd 195]	306 nM				
Cc1cc(O)cc(C)c1C[C@H](N)C(=O)N(C)[C@H](C)c1nc(-c2ccccc2)c[nH]1 [Cpd 206]	5.8 nM			37 nM	Fecal Output (# pellets) cpd ([2]; 10 mg/kg oral): 8.6 pellets; response vs control in vivo at 10 mg/kg [2, 8]: 226%; response vs control in vivo at 10 mg/kg [2, 9]: 65.6%
COc1ccc(CN(C(=O)[C@@H](N)Cc2ccc(O)cc2)[C@@H](C)c2nc(-c3ccccc3)c[nH]2)cc1C(=O)O [Cpd 261]	8.01 nM	21	30.04		
COC(=O)c1ccc(CN(C(=O)[C@@H](N)Cc2c(C)cc(C(N)=O)cc2C)[C@@H](C)c2nc(-c3ccccc3)c[nH]2)o1 [Cpd 257]		7.4	48.88		
COc1ccc(CN(C(=O)[C@@H](N)Cc2c(C)cc(C(N)=O)cc2C)[C@@H](C)c2nc(-c3ccc(I)cc3)c[nH]2)cc1C(=O)O [Cpd 289]		> 10000	86.27		
Cc1cc(O)cc(C)c1C[C@H](N)C(=O)N(Cc1nc(-c2ccccc2)c(C)[nH]1)C(C)C [Cpd 166]	5.58 nM and 12 nM			21 nM and 71 nM	
CCN(C(=O)[C@@H](N)Cc1c(C)cc(O)cc1C)[C@H](C)c1nc(-c2ccccc2)c[nH]1 [Cpd 217]	5.4 nM			82 nM	
Cc1cc(C(N)=O)cc(C)c1C[C@H](N)C(=O)N(Cc1ccc(C(=O)O)o1)[C@@H](C)c1nc(-c2ccccc2)c[nH]1 [Cpd 256]	3.82 nM	> 10000	89.19		
Cc1cc(O)cc(C)c1C[C@H](N)C(=O)N(Cc1nc(-c2ccccc2)c[nH]1)C1CCCCC1 [Cpd 190]	13.8 nM			3830 nM	

Structure (SMILES)	Ki (delta opioid receptor; read-out: r Ki δ)	EC50 [1, 4] [nM]	DOR GTP-binding Assay v2 (% I) [1, 5] [%]	EC50 [3]	also measured
COc1ccc(CN(C(=O)[C@@H](N)Cc2ccc(C(N)=O)cc2)[C@@H](C)c2nc(-c3ccccc3)c[nH]2)cc1C(=O)O [Cpd 4]	11 nM and 17 nM	46	66.12		
Cc1cc(O)cc(C)c1C[C@H](N)C(=O)N(Cc1nc(-c2cc(C(F)(F)F)cc(C(F)(F)F)c2)c(C)[nH]1)C(C)C [Cpd 164]	120 nM			2500 nM	
C[C@H](c1nc(-c2ccccc2)c[nH]1)N(C)C(=O)[C@@H](N)Cc1ccc(C(N)=O)cc1 [Cpd 203]	49.3 nM			515 nM	
COc1ccc(CN(C(=O)[C@@H](N)Cc2c(C)cc(O)cc2C)[C@@H](C)c2nc(-c3ccccc3)c[nH]2)cc1C(=O)O [Cpd 260]	0.13 nM	> 10000	100.97		
Cc1cc(O)cc(C)c1C[C@H](N)C(=O)N(Cc1ccnc2ccccc12)[C@@H](C)c1nc(-c2ccccc2)c[nH]1 [Cpd 246]	0.035 nM	0.3	47.01		
COc1ccc(CN(Cc2nc(-c3ccccc3)c[nH]2)C(=O)[C@@H](N)Cc2ccc(C(N)=O)cc2)cc1C(=O)O [Cpd 5]	630 nM and 183 nM	> 10000	47.12		
Cc1cc(O)cc(C)c1C[C@H](N)C(=O)N(Cc1cccc(C(=O)O)c1)[C@@H](C)c1nc(-c2ccccc2)c[nH]1 [Cpd 48]		> 10000	108.36		
COC(=O)c1ccc(CN(C(=O)[C@@H](N)Cc2ccc(C(N)=O)cc2)[C@@H](C)c2nc(-c3ccccc3)c[nH]2)o1 [Cpd 303]		95	23.85		
COc1ccc(CN(C(=O)[C@@H](N)Cc2c(C)cc(C(N)=O)cc2C)[C@@H](C)c2nc(-c3ccccc3)c[nH]2)cc1-c1nnn[nH]1 [Cpd 8]	0.43 nM and 0.15 nM	> 10000	94.03		
Cc1cc(C(N)=O)cc(C)c1C[C@H](N)C(=O)N(Cc1cccc(-c2nnn[nH]2)c1)[C@@H](C)c1nc(-c2ccccc2)c[nH]1 [Cpd 242]	0.18 nM	> 10000	91.45		
COc1ccc(CN(C(=O)[C@@H](N)Cc2c(C)cc(C(N)=O)cc2C)[C@@H](C)c2nc(-c3ccccc3)c[nH]2)cc1C(=O)O [Cpd 18]			100		Fecal Output (# pellets) cpd ([2]; 30 mg/kg oral): 3.1 pellets; response vs control in vivo at 30 mg/kg [2, 6]: 138%; response vs control in vivo at 30 mg/kg [2, 7]: 82.7%; Ki (delta opioid receptor; r Ki δ): 0.38 to 14.4 nM; EC50 [1]: > 10000 nM
Cc1cc(C(N)=O)cc(C)c1C[C@H](N)C(=O)N(Cc1ccc(C(=O)O)cc1)[C@@H](C)c1nc(-c2ccccc2)c[nH]1 [Cpd 50]	0.58 nM	1.4	60.27		Fecal Output (# pellets) cpd ([2]; 30 mg/kg oral): 3.3 pellets; response vs control in vivo at 30 mg/kg [2, 6]: 144%; response vs control in vivo at 30 mg/kg [2, 7]: 47.1%
C[C@H](c1nc(-c2ccccc2)c[nH]1)N(Cc1ccccc1)C(=O)[C@@H](N)Cc1ccc(O)cc1 [Cpd 221]	9.58 nM			308 nM	
CCN(C(=O)[C@@H](N)Cc1ccc(O)cc1)[C@H](C)c1nc(-c2ccccc2)c[nH]1 [Cpd 214]	308 nM			26000 nM	
C[C@@H](c1nc(-c2ccccc2)c[nH]1)N(Cc1ccccc1)C(=O)[C@@H](N)Cc1ccc(O)cc1 [Cpd 219]	87.8 nM			3560 nM	
COc1ccc(CN(C(=O)[C@@H](N)Cc2c(C)cc(C(N)=O)cc2C)[C@@H](C)c2nc(-c3ccccc3)c[nH]2)cc1OC [Cpd 75]	0.66 nM	1.4	65.35		Fecal pellet output, Compound (% control) 3.0 ([2]; dose 3.0, oral, NES mice, vs acclimated control): 223.8 % control; Fecal pellet output, Compound (% control) 10.0 ([2]; dose 10.0, oral, NES mice, vs acclimated control): 188.1 % control; Fecal pellet output, Compound (% control) 30.0 ([2]; dose 30.0, oral, NES mice, vs acclimated control): 100 % control
